Laboratory results taken from the supplement of paper PMC10307832.

Columns and labels:
Assay in all cases: relative viability (nuclei count vs DMSO), 5 days (fraction); higher = more cells survive
Bortezomib = compound: CC(C)C[C@H](NC(=O)[C@H](Cc1ccccc1)NC(=O)c1cnccn1)B(O)O [Bortezomib]
In short: (§1)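 MetaXpress counted nuclei in 4× images of lung cancer cell lines that had been fixed, permeabilised and Hoechst-stained in one step. Before that, cells in 1536-well plates were kept overnight at 37 °C, pinned with five √10-spaced library-drug doses on vehicle-anchored plates, and cultured 5 days without medium change. Viability takes treated-well nuclei over vehicle-well nuclei and uses the median across plates. Plates were accepted only at control CV below 25% and at least one doubling.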

[1] = compound: CC1=CC(=NN1)NC2=CC(=NC(=N2)/C=C/C3=CC=CC=C3)N4CCN(CC4)C
In short: as §1

Obatoclax = compound: COC1=CC(c2cc3ccccc3[nH]2)=N/C1=C\c1[nH]c(C)cc1C [Obatoclax]
In short: as §1

| Cell Line | relative viability (Bortezomib; 0.0002 µM) | relative viability (Bortezomib; 0.000632 µM) | relative viability (Bortezomib; 0.002 µM) | relative viability (Bortezomib; 0.002 µM, anchor plate) | relative viability (Bortezomib; 0.006325 µM) | relative viability (Bortezomib; 0.02 µM) | relative viability ([1]; 0.08 µM) | relative viability ([1]; 0.253 µM) | relative viability ([1]; 0.8 µM) | relative viability ([1]; 2.53 µM) | relative viability ([1]; 8 µM) | relative viability (Obatoclax; 0.01 µM) | relative viability (Obatoclax; 0.03162 µM) | relative viability (Obatoclax; 0.1 µM) | relative viability (Obatoclax; 0.3162 µM) | relative viability (Obatoclax; 1 µM) |
| --- | --- | --- | --- | --- | --- | --- | --- | --- | --- | --- | --- | --- | --- | --- | --- | --- |
| NCI-H2023 | 1.02 | 0.9 | 1 | 1.01 | 0.139 | 0.0632 | 1.01 | 1.02 | 0.859 | 0.108 | 0.0691 | 0.928 | 0.969 | 0.946 | 0.774 | 0.229 |
| EBC-1 | 0.993 | 1 | 0.417 | 0.576 | 0.0892 | 0.0983 | 0.945 | 0.966 | 0.953 | 0.475 | 0.178 | 0.923 | 0.958 | 0.924 | 0.87 | 0.338 |
| NCI-H1666 | 1.01 | 1.04 | 0.963 | 0.855 | 0.493 | 0.317 | 0.973 | 0.894 | 1.09 | 0.847 | 0.594 | 0.995 | 1.03 | 1.08 | 0.856 | 0.517 |
| NCI-H1975 | 0.902 | 0.858 | 0.239 | 0.395 | 0.153 | 0.158 | 0.954 | 0.956 | 0.984 | 0.458 | 0.152 | 1.02 | 0.865 |  | 0.977 | 0.717 |
| NCI-H1793 | 0.843 | 0.705 | 0.997 |  | 0.688 | 0.208 | 0.894 | 0.979 | 0.858 | 0.179 | 0.106 | 0.949 | 0.795 | 0.859 | 0.929 | 0.986 |
| NCI-H1355 | 0.911 | 0.909 | 1.08 | 1.23 | 0.668 | 0.152 | 0.96 | 0.965 | 0.955 | 0.647 | 0.159 | 1.03 | 0.913 | 0.918 | 0.96 | 0.947 |
| SW 900 | 0.84 | 0.932 | 0.207 |  | 0.154 | 0.17 | 0.665 | 0.844 | 0.856 | 0.459 | 0.262 | 0.887 | 0.871 | 0.748 | 0.703 | 0.365 |
| A549 | 0.914 | 0.981 | 0.939 |  | 0.0802 | 0.0522 | 0.909 | 1.04 | 0.92 | 0.29 | 0.0371 | 0.987 | 0.942 | 0.92 | 0.922 | 0.575 |
| NCI-H2170 | 0.96 | 0.824 | 1.07 |  | 0.815 | 0.177 | 0.971 | 1.04 | 0.868 | 0.77 | 0.266 | 0.942 | 0.979 | 1.01 | 0.961 | 0.977 |
| EKVX | 0.934 | 0.96 | 0.987 | 1.04 | 0.669 | 0.124 | 0.9 | 1.05 | 1.09 | 0.844 | 0.267 | 1.07 | 0.891 | 0.905 | 0.982 | 0.918 |
| RERF-LC-KJ | 0.995 | 0.949 | 1.02 | 1.11 | 0.366 | 0.239 | 0.979 | 0.964 | 0.932 | 0.555 | 0.279 | 0.98 | 1.03 | 0.989 | 0.924 | 0.715 |
| NCI-H1755 | 1.01 | 0.96 | 1.02 | 0.963 | 0.378 | 0.224 | 1.03 | 1.05 | 1.02 | 0.722 | 0.443 | 0.981 | 0.975 | 0.884 | 0.994 | 0.964 |
| NCI-H661 | 0.952 | 0.99 | 0.989 | 0.807 | 0.719 | 0.228 | 0.986 | 0.958 | 1.03 | 0.708 | 0.356 | 0.96 | 0.962 | 1.02 | 0.883 | 0.842 |
| LOU-NH91 | 0.828 | 0.825 | 0.497 | 0.518 | 0.307 | 0.365 | 0.928 | 1.08 | 0.991 | 0.806 | 0.424 | 0.974 | 0.932 | 0.68 | 0.853 | 0.854 |
| LXF-289 | 0.987 | 0.999 | 1.04 | 0.994 | 0.185 | 0.0884 | 0.993 | 1.02 | 0.964 | 0.863 | 0.435 | 0.97 | 1.03 | 0.989 | 0.982 | 0.951 |
| HCC-44 | 0.95 | 0.968 | 0.987 | 0.895 | 0.869 | 0.173 | 0.986 | 1.01 | 0.933 | 0.86 | 0.18 | 1.01 | 0.953 | 0.827 | 0.929 | 0.755 |
| HARA | 0.937 | 0.888 | 0.902 | 1.11 | 0.374 | 0.0946 | 0.908 | 0.951 | 1.25 | 0.339 | 0.217 | 0.947 | 0.956 | 1.01 | 0.908 | 0.827 |
| 201T | 0.98 | 0.953 | 0.959 | 1.09 | 0.854 | 0.351 | 1.02 | 1.06 | 0.928 | 0.892 | 0.354 | 0.965 | 0.909 | 0.95 | 1.02 | 1.05 |
| LC-2-ad | 0.877 | 0.815 | 0.99 | 1.01 | 0.257 | 0.198 | 1.02 | 0.996 | 0.799 | 0.303 | 0.177 | 0.988 | 0.988 | 0.81 | 0.896 | 0.564 |
| NCI-H596 | 0.918 | 0.894 | 0.718 | 1.05 | 0.241 | 0.211 | 1 | 0.998 | 0.879 | 0.614 | 0.256 | 1.01 | 0.858 | 0.843 | 0.691 | 0.584 |
| NCI-H1437 | 0.928 | 1 | 1 | 0.542 | 0.272 | 0.173 | 1.02 | 1.06 | 1.03 | 0.757 | 0.346 | 0.942 | 0.93 | 0.951 | 0.932 | 0.816 |
